Data as given in article PMC11243066, “Synthesis and Biological Evaluation of Novel Biased Mu-Opioid Receptor Agonists” (Molecules, 2024).

Key:
[1] = target: T1, human μOR β-arrestin2 pathway (Homo sapiens, UniProt P35372); assay: cell-based; assay type: cell-based; conditions: U2OS/human μOR β-arrestin cells, n = 3
T1 construct: β-galactosidase enzyme fragment (PathHunter complementation tag); host or cells: U2OS (U2OS/human μOR β-arrestin cells)
Protocol: In this assay, optical signal values were detected employing the PathHunter® (DiscoverX, Shanghai, China) Detection Kit assay method. The agonistic activity of tested compounds on the human μOR β-arrestin2 pathway was quantified using a β-galactosidase-based enzyme fragment complementation assay. In brief, tested compound dilutions (with final concentrations of 100 μM, 50 μM, 10 μM, 1 μM, 500 nM, 100 nM, 50 nM, 10 nM, 1 nM, and 100 pM) were produced in saline or DMSO in triplicate. Next, 100 nL of the tested compound solution per well was dispensed into a 384-well cell culture plate. The U2OS/human μOR β-arrestin cells were resuspended in Opti-MEM and counted to achieve a cell density of 4000 cells per well, and 20 μL from each well was seeded into the 384-well cell culture plate. The plate was subsequently incubated at 37 °C in the dark for 120 min. Post-incubation, the cell plate was equilibrated to room temperature for 10–20 min, and 5 μL of the detection reagent were added to each well. Following a 60 min incubation at 25 °C, chemiluminescent readings were obtained using the envision system.
The cells were maintained at 37 °C with 5% CO2 in McCoy’s 5a medium with supplements and cultivated utilizing precise techniques to ensure accurate, reproducible results. Cells were gently dissociated for assays to maintain receptor integrity and resuspended in Opti-MEM® for compatibility with the PathHunter® (DiscoverX, Shanghai, China). Detection Kit. Cell density was adjusted to 4000 cells per well in a 384-well plate, to ensure that a uniform monolayer was established for the β-galactosidase assay. After seeding and incubation in the dark at 37 °C to facilitate cell attachment, the plates were equilibrated to room temperature prior to compound treatment. Serial dilutions of the compounds were assessed for pharmacological effect. A detection reagent was then added to measure β-galactosidase activity as indicative of μ-opioid receptor and β-arrestin2 interaction. Following reagent incubation, chemiluminescence was quantified, providing quantitative data on compound agonistic activity. Throughout, meticulous aseptic technique and strict adherence to protocols were imperative to ensure the integrity of the pharmacological data derived from these studies.

mice [2] = assay: Formalin paw-licking test; assay type: in vivo, CD-1 mice; conditions: 20 mg/kg i.v. tail vein, Phase II
Protocol: (§1) Food and water were provided ad libitum.
The formalin injection assay was performed as described previously. […] After 15 min, 30 µL of a 2.7% formalin solution was administered into the right hind paw of each mouse. Then, the mice were put into the cage and their behaviors were observed. The antinociception rate was quantified as the percentage of maximal possible effect (%MPE), calculated as %MPE = 100 × (PLTV − PLTT)/PLTV; PLTV and PLTT represent the average paw-licking duration during Phase II for the vehicle and test groups, respectively.

mice [3] = assay: Acetic acid-induced writhing test; assay type: in vivo, CD-1 mice; conditions: 20 mg/kg i.v. tail vein
Protocol: as §1
The acetic acid-induced writhing test was performed as described previously. In brief, after pretreatment with the test compound at a dose of 20 mg/kg via intravenous tail vein injection, 1% (v/v) glacial acetic acid was administered intraperitoneally (i.p.) at a dose of 10 mL/kg. Subsequently, the number of writhing responses over a 20 min period was recorded. The antinociception rate was calculated as the percentage of maximal possible effect (%MPE), where %MPE = 100 × (NWV − NWT)/NWV. NWV and NWT represent the average number of writhing responses of the vehicle and test groups, respectively.

human μ-opioid receptor = target: T2, human μ-opioid receptor (Homo sapiens, UniProt P35372); assay: cell-based; assay type: cell-based; conditions: CHO/μOR cells, n = 3
T2 construct: expressed in transfected cells; host or cells: CHO (CHO/μOR cells)
T2 sequence (P35372 whole entry): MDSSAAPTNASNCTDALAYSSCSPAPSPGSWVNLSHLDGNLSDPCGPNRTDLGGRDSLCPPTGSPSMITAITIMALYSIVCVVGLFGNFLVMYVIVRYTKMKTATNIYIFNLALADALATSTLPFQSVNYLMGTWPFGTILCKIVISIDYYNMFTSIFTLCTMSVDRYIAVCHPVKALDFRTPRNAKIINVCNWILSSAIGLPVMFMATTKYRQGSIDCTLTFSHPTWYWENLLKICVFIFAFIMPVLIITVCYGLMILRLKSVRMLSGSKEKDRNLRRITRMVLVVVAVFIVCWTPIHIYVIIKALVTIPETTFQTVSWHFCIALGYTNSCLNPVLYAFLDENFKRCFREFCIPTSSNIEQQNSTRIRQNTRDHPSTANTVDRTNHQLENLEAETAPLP
Protocol: The inhibition assay was performed as described previously. In brief, tested compound dilutions (with final concentrations of 100 µM, 50 µM, 10 µM, 1 µM, 500 nM, 100 nM, 50 nM, 10 nM, 1 nM, and 100 pM) were produced in saline or DMSO in triplicate. CHO/μOR cells were suspended in the assay buffer and counted, maintaining a cell density of 2000 cells per well, with 5 µL from each well seeded into a 384-well plate. Subsequently, 5 µL of the tested compound solution per well was dispensed into the plate, which was then placed in a 25 °C incubator and incubated in the dark for 30 min. Next, 10 µL of cAMP standard working solution was added to the empty wells of the plate, followed by the addition of 5 µL of Eu-cAMP and Anti-cAMP per well. The plate was subsequently placed back in a 25 °C incubator and further incubated in the dark for 1 h.
CHO cells expressing the human μ-opioid receptor were cultivated for the assessment of compound effects. […] Cells collected during the exponential phase of growth were dissociated without enzymes to preserve receptor integrity, resuspended in assay buffer, and counted to achieve a uniform concentration. Cell density was adjusted to 2000 cells per well in a 384-well plate, promoting uniform distribution and optimal receptor presence. Post-seeding at 25 °C in darkness facilitated cell adherence and stabilization prior to compound introduction. Compounds were added in serial dilutions, with meticulous dispensing techniques ensuring dose uniformity. Following a 1 h incubation at 25 °C, TR-FRET reagents were applied to measure cAMP levels, indicative of μOR activity. The Envision system recorded these levels, quantifying compound inhibitory effects. Meticulous aseptic techniques and vigilant monitoring were imperative throughout to guarantee data precision from the assay.

mice [4] = assay: Respiratory depression (blood pO2, blood gas analyzer); conditions: single i.v. dose 20 mg/kg (morphine 4 mg/kg), 5-40 min
Protocol: (§2) The mice were group-housed in a controlled temperature environment and subjected to a 12 h light/dark cycle (lights on from 07:00 to 19:00). Food and water were provided ad libitum. All animal procedures were conducted in accordance with the policies and recommendations of the International Association for the Study of Pain and the National Health and Animal Welfare Committee of the Beijing Institute of Pharmacology, with the aim of minimizing the number of animals used and their suffering.

mice [5] = assay: Hot-water tail withdrawal test; assay type: in vivo, CD-1 mice; conditions: 20 mg/kg i.v. tail vein, 15 min post administration
Protocol: as §1
The hot-water tail withdrawal test was performed as described previously. In brief, the hot-water tail withdrawal test was conducted using a water bath maintained at 55 ± 0.5 °C. The distal 3 cm section of the mouse’s tail was immersed perpendicularly into the hot water. The duration for which the tail remained in the water was recorded as the initial tail withdrawal latency (TWL0). […] Following the administration of a single dose of the test compound (20 mg/kg, i.v.) or vehicle, the subsequent tail withdrawal latency (TWL) was measured at various time intervals (15, 30, 45, 60, and 90 min). To prevent potential tissue damage, a maximum cutoff latency of 16 s was enforced. Antinociception was quantified using the percentage of maximal possible effect (%MPE), calculated as %MPE = 100 × (TWL − TWL0)/(16 − TWL0).

mice [6] = assay: Physical dependence (naloxone-precipitated withdrawal jumping); conditions: i.v. once daily for 5 days, PZM21 and 6a 20 mg/kg, morphine 2 mg/kg, jumps over 20 min
Protocol: as §2

T1 sequence (P35372 whole entry, the tested form may be a part): as the sequence (P35372 whole entry) above

**Q.** What does the source list for CN(C)[C@H](CNC(=O)NCc1ccccc1)Cc1cccc2ccccc12 [6a, (S)-1-benzyl-3-(2-(dimethylamino)-3-(naphthalen-1-yl)propyl) urea]?
**A.** Emax ([1]; at the concentration printed in parentheses in the cell, read-out: Max Effect ± SEM (%), µOR β-arrestin recruitment assay): 0.38 ± 0.21%; EC50 ([1]; "-" = no measurable activity, read-out: EC50 (nM) (95% CI), µOR β-arrestin recruitment assay): > 100000 nM; antinociceptive efficacy (%MPE), formalin-induced paw licking, second phase (mice [2]): 73.80%; analgesia rate (%MPE), acetic acid-induced writhing (mice [3]): exceeding 97%; EC50 (human μ-opioid receptor; cAMP inhibition, "-" = no measurable activity, read-out: EC50 (nM) (95% CI), µOR-Gi/o activation assay): 10.8 nM; Emax (human μ-opioid receptor; at the concentration printed in parentheses in the cell, read-out: Max Effect ± SEM (%), µOR-Gi/o activation assay): 51.9 ± 1.06%; respiratory depression: partial pressure of oxygen in blood vs vehicle (mice [4]): does not induce acute respiratory depression; pain inhibition rate (%MPE), hot-water tail-withdrawal test (mice [5]): 50.19%; physical dependence: jumping after naloxone-precipitated withdrawal vs vehicle (mice [6]): does not induce physical dependence or withdrawal symptoms
